From article doi:10.1101/2025.03.03.641193, “Trihydroxybenzaldoximes are redox cycling inhibitors of ThDP-dependent DXP synthase” (bioRxiv, 2025)
Entries after “also recorded” stand apart in the source; their conditions may differ.

Legend:
DrDXPS = target: T1, DrDXPS (Deinococcus radiodurans, UniProt Q9RUB5); experiment: DXPS-IspC coupled assay, DrDXPS; format: biochemical, Deinoccocus radiodurans
T1 construct: made in house
Description: (§1) Inhibitory activity of compounds against DXPS were monitored via a continuous spectrophotometric coupled assay with DXPS and IspC as previously described.[41],[42] Briefly, Reaction mixtures containing HEPES (100 mM, pH 8.0), MgCl2 (2 mM), NaCl (5 mM), ThDP (1 mM), BSA (1 mg/mL), DXPS (125–500 nM), IspC (1.7 μM), NADPH (160 μM), DMSO (5%, v/v), and inhibitor (0–200 μM) were preincubated at 25 °C (or chamber temperature 25–30 °C) for 5 min. Enzymatic reactions were initiated via the addition of 20 μL of a 10x substrate mix for a final well volume of 200 μL. Reactions were performed in triplicate unless otherwise noted. See the following sections for details and modifications.
(§2) When varying pyruvate (0–500 μM), GAP was maintained at 50 μM (3 mM for R478A). When varying GAP (0–500 μM), pyruvate was maintained at 500 μM. The following [DXPS] were used when varying 1: WT EcDXPS, R478A, H431A, D427A (200 nM), R99A (500 nM), WT DrDXPS, WT PaDXPS (150 nM). Analogs 3 and 4 were tested using WT EcDXPS (150 nM). Reactions were incubated and initiated as described above. Immediately following initiation, NADPH depletion was monitored at 340 nm at 25 °C for 7–10 min with a 14–20 second time interval. Initial velocities of DXP formation were determined from the linear portion of the NADPH decay. Initial velocities were arithmetically corrected for background for compound 4. Initial velocities were plotted vs. substrate concentration, and the data were fit to equation 1 (mixed model), 2 (competitive), or 3 (uncompetitive) based on the calculated α value and goodness of fit in GraphPad Prism. Reported standard errors of the mean for Kis are calculated from three replicates.

PaDXPS = target: T2, PaDXPS (Pseudomonas aeruginosa, UniProt Q9KGU7); experiment: DXPS-IspC coupled assay, PaDXPS; format: biochemical
T2 construct: made in house
Description: as §1, §2

[1] = NMR detection of redox state of 1; format: physicochemical
Description: NMR experiments were performed as previously described[16],[24] with the following modifications. Experiments were performed aerobically unless otherwise noted. Anaerobic experiments were performed in the anaerobic chamber up to the point of transfer to NMR tubes which were capped with rubber septa to exclude oxygen once removed from the chamber. […] Solutions were also prepared aerobically in the presence of ascorbate (5 mM) and CAT (0.25 mg/mL). Oxime 1 (500 μM) was then added and solutions were incubated at 4 °C for 20 min. After incubation, 600 μL of each solution were transferred to labeled NMR tubes. 1D ^1H-NMR and 1D ^1H detected H{^13C} and H3{^13C} spectra via a proton multiplicity filter, which selects for ^13C nuclei attached to an odd number of protons, were acquired on a Bruker Avance 600 MHz or a Bruker Avance NEO 600 MHz spectrometer (HEPES anaerobic and Tris anaerobic) equipped with a TCI cryogenic probe equipped with z-gradients with a cryo-cooled ^13C preamplifier, resulting in high sensitivity for ^13C detection. Spectra were acquired at 600 MHz (^1H) and 150 MHz (^13C), at 25 °C utilizing a 90° ^1H excitation pulse (optimized for maximum signal-to-noise per unit time), 128 scans/FID (^1H-NMR), 200 ms acquisition time/FID, and a 3s relaxation day between successive scans, or 64 scans/FID (^1H detected H{^13C} and H3{^13C}), 200 ms acquisition time/FID, and a 5s relaxation day between successive scans.

[2] = target: T3, alcohol dehydrogenase (ADH) (Equus caballus, UniProt P00327); experiment: Inhibition of ADH; format: biochemical; conditions: up to 200 μM, MES pH 6.2
T3 construct: purchased Sigma Aldrich 55689
Description: Reaction mixtures containing MES (100 mM, pH 6.2), MgCl2 (2 mM), ThDP (5 mM), ADH (16 U/mL), NADH (170 μM), and 1 (0 or 200 μM) were preincubated at 25 °C for 5 min. Enzymatic reactions were initiated via the addition of 20 μL of 10x acetaldehyde (final 1mM), or water for background controls, for a final well volume of 200 μL. Immediately following initiation, NADH depletion was monitored at 340 nm at 25 °C for 6 min with a 11 second time interval. Initial velocities of ethanol formation were measured as above and arithmetically corrected for background rates. Reported standard errors of the mean for Kis are calculated from three replicates.

H431A DXPS = target: T4, H431A DXPS (Escherichia coli, UniProt P77488, H431A); experiment: DXPS-IspC coupled assay, H431A variant; format: biochemical, E. coli
T4 construct: made in house
Description: To determine the role of active site network residues in the activity of oximes, inhibitory activity of 1 was assessed against EcD427A, EcH431A, and EcR99A by the DXPS-IspC coupled assay[41],[42] (Fig 4B, S3, Table S1). Ki determination was performed by varying [pyruvate] in order to assess the impact of residue substitutions on the uncompetitive mode of inhibition. […] (8.7 ± 1.2 μM, Fig S3, Table S1).
as §1, §2

EcDXPS = target: T5, EcDXPS (Escherichia coli, UniProt P77488); experiment: DXPS-IspC coupled assay, aerobic, WT EcDXPS; format: biochemical, E. coli
T5 construct: made in house
Description: as §1
as §2, with “Analogs 3 and 4 were tested using WT EcDXPS (150 nM).” left out, “Initial velocities were arithmetically corrected for background for compound 4.” left out

## ON=Cc1cc(O)c(O)cc1O [compound 1, 2,4,5-trihydroxybenzaldoxime]
DrDXPS
  Ki: 2800 ± 200 nM
DrDXPS; DrDXPS
  MOI varying D-GAP: competitive
  MOI varying pyruvate: uncompetitive
DrDXPS; DrDXPS, varying either pyruvate or D-GAP
  Ki relative to EcDXPS: ≤ 2 fold
PaDXPS
  Ki: 16400 ± 2200 nM
PaDXPS; PaDXPS
  MOI varying D-GAP: competitive
  MOI varying pyruvate: uncompetitive
PaDXPS; PaDXPS, vary pyruvate, fold reduction in potency
  Ki/Ki^EcDXPS: 3.5
[1]; 500 μM, HEPES 50 mM pH 8, aerobic
  redox state by 1H-NMR: partially
[1]; 500 μM, HEPES pH 8, aerobic, ascorbate 5 mM
  redox state by 1H-NMR: reduced
[1]; 500 μM, HEPES pH 8, aerobic, catalase 0.25 mg/mL
  redox state by 1H-NMR: mostly oxidized
[1]; 500 μM, Tris 50 mM pH 8, aerobic
  redox state by 1H-NMR: mostly
[1]; 500 μM, acidic pH (MES pH 6.2), aerobic
  redox state by 1H-NMR: mostly reduced
[1]; 500 μM, neutral and basic pH (phosphate pH 7, CHES pH 9), aerobic
  redox state by 1H-NMR: oxidized
[1]; 12.5 mM, HEPES 100 mM pH 8, aerobic
  redox state by 1H-NMR: primarily in the reduced state
[1]; anaerobic conditions
  redox state by 1H-NMR: primarily in its reduced form
[2]
  Inhibition of ADH: did not inhibit; also recorded: not inhibited
H431A DXPS
  Ki: 1100 ± 100 nM
H431A DXPS; EcH431A
  MOI varying pyruvate: uncompetitive
H431A DXPS; H431A, vary pyruvate
  fold lower Ki relative to WT: ~ 4 fold
EcDXPS; WT DXPS, HEPES pH 8, 200 μM
  %Inhibition at 200 μM 1: ~ 79%
EcDXPS; WT EcDXPS, aerobic
  MOI varying D-GAP: competitive
  MOI varying pyruvate: uncompetitive
EcDXPS; pH 8, read-out: %Inhibition at 200 μM 1, WT DXPS, HEPES pH 8, 200 μM
  inhibition at 200 µM: 79.2 ± 0.2%
